Measured values from patent US20230295197A1, “STAT5 and STAT6 Degraders and Uses Thereof” (REGENTS OF THE UNIVERSITY OF MICHICAN, priority 2022, published 2023).
Where two headings read alike, the source gives them in different places.

Biological target: T1, STAT6 (Homo sapiens, UniProt P42226)
T1 construct: endogenous in cells; host or cells: MOLM-16, KU-812, SKNO1, MB231, L1236
T1 sequence (P42226 1-847): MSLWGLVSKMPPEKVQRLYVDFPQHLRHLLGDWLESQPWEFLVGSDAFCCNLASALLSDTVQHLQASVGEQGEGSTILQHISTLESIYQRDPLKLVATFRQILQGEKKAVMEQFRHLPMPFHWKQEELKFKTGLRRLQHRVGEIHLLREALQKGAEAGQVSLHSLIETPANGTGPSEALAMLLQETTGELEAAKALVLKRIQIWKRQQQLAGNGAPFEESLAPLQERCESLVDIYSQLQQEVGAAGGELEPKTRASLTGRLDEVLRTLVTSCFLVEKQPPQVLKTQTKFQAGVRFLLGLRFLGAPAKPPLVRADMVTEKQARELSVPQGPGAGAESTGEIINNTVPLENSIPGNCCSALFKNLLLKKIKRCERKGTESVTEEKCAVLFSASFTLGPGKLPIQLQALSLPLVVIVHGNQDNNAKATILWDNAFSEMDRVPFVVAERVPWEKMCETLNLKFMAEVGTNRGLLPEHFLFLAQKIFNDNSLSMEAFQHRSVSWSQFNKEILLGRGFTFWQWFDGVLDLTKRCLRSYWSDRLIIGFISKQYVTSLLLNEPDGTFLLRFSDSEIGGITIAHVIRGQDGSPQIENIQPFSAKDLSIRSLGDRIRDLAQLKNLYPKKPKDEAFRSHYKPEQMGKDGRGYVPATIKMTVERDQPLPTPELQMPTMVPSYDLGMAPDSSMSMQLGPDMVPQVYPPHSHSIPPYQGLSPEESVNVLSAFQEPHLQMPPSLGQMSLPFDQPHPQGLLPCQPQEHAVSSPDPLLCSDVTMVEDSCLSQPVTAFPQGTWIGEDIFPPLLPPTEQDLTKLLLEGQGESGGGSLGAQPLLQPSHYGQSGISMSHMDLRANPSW
Assay: Immunoblotting (Western blot) analysis of STAT6 degradation efficiency of degraders in treated cells
Assay type: cell-based
Outline: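 Read-out: fluorescent IRDye 680RD/800CW secondaries imaged on an infrared scanner, with band intensities quantified by densitometry and GAPDH serving as loading control. Samples were RIPA lysates, BCA-normalised, from ~1 million treated cells.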

[1] = MOLM-16 cells, class symbols, read-out: DC50 S6 MOLM-16
[2] = L1236 cells, read-out: DC50 S6 L1236

Row | SMILES | DC50 [1] [µM] | DC50 [2] [µM]
1 | CC(C)(C)[C@H](NC(=O)c1cc2cc(C(F)(F)P(=O)(O)O)ccc2s1)C(=O)N1C[C@@H](OCC(=O)NCC#Cc2cccc3c2C(=O)N(C2CCC(=O)NC2=O)C3=O)C[C@H]1C(=O)N1CCO[C@H](c2ccccc2)C1 (stereo partly drawn) [Compound 479, ((2-(((2S)-1-((2S,4S)-4-(2-((3-(2-(2,6-dioxopiperidin-3-yl)-1,3-dioxoisoindolin-4-yl)prop-2-yn-1-yl)amino)-2-oxoethoxy)-2-((R)-2-phenylmorpholine-4-carbonyl)pyrrolidin-1-yl)-3,3-dimethyl-1-oxobutan-2-yl)carbamoyl)benzo[b]thiophen-5-yl)difluoromethyl)phosphonic acid] | > 10 | –
2 | CC(C)(C)[C@H](NC(=O)c1cc2cc(C(F)(F)P(=O)(O)O)ccc2s1)C(=O)N1C[C@@H](OCC(=O)NCCC#Cc2cccc3c2C(=O)N(C2CCC(=O)NC2=O)C3=O)C[C@H]1C(=O)N1CCO[C@H](c2ccccc2)C1 (stereo partly drawn) [Compound 481, ((2-(((2S)-1-((2S,4S)-4-(2-((4-(2-(2,6-dioxopiperidin-3-yl)-1,3-dioxoisoindolin-4-yl)but-3-yn-1-yl)amino)-2-oxoethoxy)-2-((R)-2-phenylmorpholine-4-carbonyl)pyrrolidin-1-yl)-3,3-dimethyl-1-oxobutan-2-yl)carbamoyl)benzo[b]thiophen-5-yl)difluoromethyl)phosphonic acid] | > 10 | –
3 | Cc1ncsc1-c1ccc([C@H](C)NC(=O)[C@@H]2C[C@@H](O)CN2C(=O)[C@@H](NC(=O)CCCCCCCCCNC(=O)COc2ccc3c(c2)CN(C(=O)[C@@H](NC(=O)c2cc4cc(C(F)(F)P(=O)(O)O)ccc4s2)C(C)(C)C)[C@H](C(=O)N2CCO[C@H](c4ccccc4)C2)C3)C(C)(C)C)cc1 [Compound 469, (difluoro(2-(((S)-1-((S)-7-(2-((10-(((S)-1-((2S,4R)-4-hydroxy-2-(((S)-1-(4-(4-methylthiazol-5-yl)phenyl)ethyl)carbamoyl)pyrrolidin-1-yl)-3,3-dimethyl-1-oxobutan-2-yl)amino)-10-oxodecyl)amino)-2-oxoethoxy)-3-((R)-2-phenylmorpholine-4-carbonyl)-3,4-dihydroisoquinolin-2(1H)-yl)-3,3-dimethyl-1-oxobutan-2-yl)carbamoyl)benzo[b]thiophen-5-yl)methyl)phosphonic acid] | > 10 | > 10
4 | Cc1ncsc1-c1ccc([C@H](C)NC(=O)[C@@H]2C[C@@H](O)CN2C(=O)[C@@H](NC(=O)CCCCNC(=O)CC(=O)N2CCN(C(=O)[C@@H](NC(=O)c3cc4cc(C(F)(F)P(=O)(O)O)ccc4s3)C(C)(C)C)[C@H](C(=O)N3CCC[C@H](c4ccccc4)C3)C2)C(C)(C)C)cc1 [Compound 455, (difluoro(2-(((S)-1-((S)-4-(3-((5-(((S)-1-((2S,4R)-4-hydroxy-2-(((S)-1-(4-(4-methylthiazol-5-yl)phenyl)ethyl)carbamoyl)pyrrolidin-1-yl)-3,3-dimethyl-1-oxobutan-2-yl)amino)-5-oxopentyl)amino)-3-oxopropanoyl)-2-((R)-3-phenylpiperidine-1-carbonyl)piperazin-1-yl)-3,3-dimethyl-1-oxobutan-2-yl)carbamoyl)benzo[b]thiophen-5-yl)methyl)phosphonic acid] | > 10 | > 10
5 | CC(C)(C)[C@H](NC(=O)c1cc2cc(C(F)(F)P(=O)(O)O)ccc2s1)C(=O)N1C[C@@H](OCC(=O)NCCCCCC#Cc2cccc3c2C(=O)N(C2CCC(=O)NC2=O)C3=O)C[C@H]1C(=O)N1CCO[C@H](c2ccccc2)C1 (stereo partly drawn) [Compound 487, ((2-(((2S)-1-((2S,4S)-4-(2-((7-(2-(2,6-dioxopiperidin-3-yl)-1,3-dioxoisoindolin-4-yl)hept-6-yn-1-yl)amino)-2-oxoethoxy)-2-((R)-2-phenylmorpholine-4-carbonyl)pyrrolidin-1-yl)-3,3-dimethyl-1-oxobutan-2-yl)carbamoyl)benzo[b]thiophen-5-yl)difluoromethyl)phosphonic acid] | > 10 | –
6 | Cc1ncsc1-c1ccc([C@H](C)NC(=O)[C@@H]2C[C@@H](O)CN2C(=O)[C@@H](NC(=O)CCCCCCNC(=O)CC(=O)N2CCN(C(=O)[C@@H](NC(=O)c3cc4cc(C(F)(F)P(=O)(O)O)ccc4s3)C(C)(C)C)[C@H](C(=O)N3CCO[C@H](c4ccccc4)C3)C2)C(C)(C)C)cc1 [Compound 448, (difluoro(2-(((S)-1-((S)-4-(3-((7-(((S)-1-((2S,4R)-4-hydroxy-2-(((S)-1-(4-(4-methylthiazol-5-yl)phenyl)ethyl)carbamoyl)pyrrolidin-1-yl)-3,3-dimethyl-1-oxobutan-2-yl)amino)-7-oxoheptyl)amino)-3-oxopropanoyl)-2-((R)-2-phenylmorpholine-4-carbonyl)piperazin-1-yl)-3,3-dimethyl-1-oxobutan-2-yl)carbamoyl)benzo[b]thiophen-5-yl)methyl)phosphonic acid] | > 10 | > 10
7 | Cc1ncsc1-c1ccc([C@H](C)NC(=O)[C@@H]2C[C@@H](O)CN2C(=O)[C@@H](NC(=O)CNC(=O)CO[C@H]2C[C@@H](C(=O)N3CCC[C@H](c4ccccc4)C3)N(C(=O)[C@@H](NC(=O)c3cc4cc(C(F)(F)P(=O)(O)O)ccc4s3)C(C)(C)C)C2)C(C)(C)C)cc1 [Compound 434, (difluoro(2-(((S)-1-((2S,4S)-4-(2-((2-(((S)-1-((2S,4R)-4-hydroxy-2-(((S)-1-(4-(4-methylthiazol-5-yl)phenyl)ethyl)carbamoyl)pyrrolidin-1-yl)-3,3-dimethyl-1-oxobutan-2-yl)amino)-2-oxoethyl)amino)-2-oxoethoxy)-2-((R)-3-phenylpiperidine-1-carbonyl)pyrrolidin-1-yl)-3,3-dimethyl-1-oxobutan-2-yl)carbamoyl)benzo[b]thiophen-5-yl)methyl)phosphonic acid] | > 10 | > 10
8 | O=C1CCC(N2Cc3cc(C#CCCCCCC(=O)N4CC[C@H]5CC[C@@H](C(=O)N6CC[C@@H](c7ccccc7)C6)N5C(=O)[C@@H](NC(=O)c5cc6cc(C(F)(F)P(=O)(O)O)ccc6s5)C4)ccc3C2=O)C(=O)N1 (stereo partly drawn) [Compound 574, ((2-(((5S,8S,10aR)-3-(8-(2-(2,6-dioxopiperidin-3-yl)-1-oxoisoindolin-5-yl)oct-7-ynoyl)-6-oxo-8-((S)-3-phenylpyrrolidine-1-carbonyl)decahydropyrrolo[1,2-a][1,5]diazocin-5-yl)carbamoyl)benzo[b]thiophen-5-yl)difluoromethyl)phosphonic acid] | > 10 | > 10
9 | CC(C)(C)[C@H](NC(=O)c1cc2cc(C(F)(F)P(=O)(O)O)ccc2s1)C(=O)N1CCN(C(=O)CC(=O)NCCCC#Cc2ccc3c(c2)C(=O)N(C2CCC(=O)NC2=O)C3=O)C[C@H]1C(=O)N1CCO[C@H](c2ccccc2)C1 (stereo partly drawn) [Compound 512, ((2-(((25)-1-((2S)-4-(3-((5-(2-(2,6-dioxopiperidin-3-yl)-1,3-dioxoisoindolin-5-yl)pent-4-yn-1-yl)amino)-3-oxopropanoyl)-2-((R)-2-phenylmorpholine-4-carbonyl)piperazin-1-yl)-3,3-dimethyl-1-oxobutan-2-yl)carbamoyl)benzo[b]thiophen-5-yl)difluoromethyl)phosphonic acid] | 0.1 to 1 | –
10 | Cc1ncsc1-c1ccc([C@H](C)NC(=O)[C@@H]2C[C@@H](O)CN2C(=O)[C@@H](NC(=O)CCCCCCCNC(=O)COc2ccc3c(c2)CN(C(=O)[C@@H](NC(=O)c2cc4cc(C(F)(F)P(=O)(O)O)ccc4s2)C(C)(C)C)[C@H](C(=O)N2CCO[C@H](c4ccccc4)C2)C3)C(C)(C)C)cc1 [Compound 467, (difluoro(2-(((S)-1-((S)-7-(2-((8-(((S)-1-((2S,4R)-4-hydroxy-2-(((S)-1-(4-(4-methylthiazol-5-yl)phenyl)ethyl)carbamoyl)pyrrolidin-1-yl)-3,3-dimethyl-1-oxobutan-2-yl)amino)-8-oxooctyl)amino)-2-oxoethoxy)-3-((R)-2-phenylmorpholine-4-carbonyl)-3,4-dihydroisoquinolin-2(1H)-yl)-3,3-dimethyl-1-oxobutan-2-yl)carbamoyl)benzo[b]thiophen-5-yl)methyl)phosphonic acid] | > 10 | > 10
11 | CC(C)(C)[C@H](NC(=O)c1cc2cc(C(F)(F)P(=O)(O)O)ccc2s1)C(=O)N1C[C@@H](OCC(=O)NCC#Cc2cccc3c2C(=O)N(C2CCC(=O)NC2=O)C3=O)C[C@H]1C(=O)N1CCC[C@H](c2ccccc2)C1 (stereo partly drawn) [Compound 493, ((2-(((2S)-1-((2S,4S)-4-(2-((3-(2-(2,6-dioxopiperidin-3-yl)-1,3-dioxoisoindolin-4-yl)prop-2-yn-1-yl)amino)-2-oxoethoxy)-2-((R)-3-phenylpiperidine-1-carbonyl)pyrrolidin-1-yl)-3,3-dimethyl-1-oxobutan-2-yl)carbamoyl)benzo[b]thiophen-5-yl)difluoromethyl)phosphonic acid] | > 10 | –
